Assay results reported in the NIST ThermoML archive (doi:10.1016/j.fluid.2013.11.028).

Legend:
[1] = wn = mass fraction of the nth substance listed; details: 101 kPa, Liquid; for viscosity: Falling or rolling sphere viscometry; for binary diffusion coefficient: Taylor dispersion method; for mass density: Vibrating tube method
[2] = Liquid; for mass density: 101 kPa, Vibrating tube method; for viscosity: 101.33 kPa, Falling or rolling sphere viscometry
[3] = xn = mol fraction of the nth substance listed; details: 101 kPa, Liquid, Taylor dispersion method, x1 = 0.2

CNCCCN [N-methyl-1,3-diaminopropane] + O
[1]
Details	binary diffusion coefficient [m2/s]	mass density [kg/m3]	viscosity [mPa·s]
303.15 K, w1 = 0	8.45e-10	–	–
303.15 K, w1 = 0.1	7.35e-10	988.5	1.231
303.15 K, w1 = 0.2	6.87e-10	983.9	2.005
303.15 K, w1 = 0.3	6.4e-10	980.7	3.41
303.15 K, w1 = 0.4	6.08e-10	975.9	5.515
303.15 K, w1 = 1	–	849.1	–
308.15 K, w1 = 0	9.56e-10	–	–
308.15 K, w1 = 0.1	8.63e-10	986.7	1.09
308.15 K, w1 = 0.2	7.69e-10	981.6	1.731
308.15 K, w1 = 0.3	7.26e-10	977.7	2.823
308.15 K, w1 = 0.4	6.92e-10	972.2	4.451
308.15 K, w1 = 1	–	844.7	–
313.15 K, w1 = 0	1.05e-09	–	–
313.15 K, w1 = 0.1	9.36e-10	984.7	0.976
313.15 K, w1 = 0.2	8.72e-10	979.1	1.512
313.15 K, w1 = 0.3	8.25e-10	974.5	2.391
313.15 K, w1 = 0.4	7.77e-10	968.4	3.66
313.15 K, w1 = 1	–	840.3	–
318.15 K, w1 = 0	1.18e-09	–	–
318.15 K, w1 = 0.1	1.05e-09	982.6	0.887
318.15 K, w1 = 0.2	9.72e-10	976.4	1.333
318.15 K, w1 = 0.3	9.22e-10	971.3	2.059
318.15 K, w1 = 0.4	8.73e-10	964.6	2.979
318.15 K, w1 = 1	–	835.9	–
323.15 K, w1 = 0	1.31e-09	–	–
323.15 K, w1 = 0.1	1.18e-09	980.2	0.808
323.15 K, w1 = 0.2	1.09e-09	973.7	1.184
323.15 K, w1 = 0.3	1.03e-09	967.9	1.769
323.15 K, w1 = 0.4	9.77e-10	960.7	2.525
323.15 K, w1 = 1	–	831.5	–

CN(C)CCN(C)C [N,N,N',N'-tetramethyl-1,2-diaminoethane] + O
[1]
Details	binary diffusion coefficient [m2/s]	mass density [kg/m3]	viscosity [mPa·s]
303.15 K, w1 = 0	7.34e-10	–	–
303.15 K, w1 = 0.1	5.61e-10	982.9	1.34
303.15 K, w1 = 0.2	4.62e-10	972.6	2.338
303.15 K, w1 = 0.3	3.74e-10	962.1	3.963
303.15 K, w1 = 0.4	3.12e-10	947.8	6.207
303.15 K, w1 = 1	–	767.3	–
308.15 K, w1 = 0	8.35e-10	–	–
308.15 K, w1 = 0.1	6.29e-10	981	1.179
308.15 K, w1 = 0.2	5.25e-10	970	1.983
308.15 K, w1 = 0.3	4.4e-10	958.6	3.243
308.15 K, w1 = 0.4	3.66e-10	943.7	4.925
308.15 K, w1 = 1	–	762.9	–
313.15 K, w1 = 0	9.38e-10	–	–
313.15 K, w1 = 0.1	7.16e-10	979	1.046
313.15 K, w1 = 0.2	5.74e-10	967.3	1.704
313.15 K, w1 = 0.3	4.91e-10	955.1	2.705
313.15 K, w1 = 0.4	4.25e-10	939.5	3.941
313.15 K, w1 = 1	–	759.1	–
318.15 K, w1 = 0	1.05e-09	–	–
318.15 K, w1 = 0.1	8.01e-10	976.7	0.933
318.15 K, w1 = 0.2	6.38e-10	964.4	1.481
318.15 K, w1 = 0.3	5.53e-10	951.5	2.287
318.15 K, w1 = 0.4	4.61e-10	935.3	3.205
318.15 K, w1 = 1	–	754.7	–
323.15 K, w1 = 0	1.18e-09	–	–
323.15 K, w1 = 0.1	9.51e-10	974.3	0.839
323.15 K, w1 = 0.2	7.5e-10	961.4	1.301
323.15 K, w1 = 0.3	6.29e-10	947.8	1.96
323.15 K, w1 = 0.4	5.31e-10	931	2.682
323.15 K, w1 = 1	–	750.3	–

CN(C)CCCN(C)C [N,N,N',N'-tetramethyl-1,3-propanediamine]
[2]
Details	mass density [kg/m3]
303.15 K	774.8
308.15 K	770.9
313.15 K	767.4
318.15 K	765
323.15 K	761.4

CNCCCN [N-methyl-1,3-diaminopropane]
[2]
Details	mass density [kg/m3]
303.15 K	849.1
308.15 K	844.7
313.15 K	840.3
318.15 K	835.9
323.15 K	831.5

NCCNCCN [di(2-aminoethyl)amine] + O
[1]
Details	binary diffusion coefficient [m2/s]	mass density [kg/m3]	viscosity [mPa·s]
303.15 K, w1 = 0	7.45e-10	–	–
303.15 K, w1 = 0.1	7.01e-10	998.5	1.211
303.15 K, w1 = 0.2	6.64e-10	1002.9	2.011
303.15 K, w1 = 0.3	6.14e-10	1009.8	3.572
303.15 K, w1 = 0.4	5.57e-10	1016.2	7.31
303.15 K, w1 = 1	–	942.1	–
308.15 K, w1 = 0	8.43e-10	–	–
308.15 K, w1 = 0.1	7.93e-10	996.7	1.08
308.15 K, w1 = 0.2	7.61e-10	1000.8	1.751
308.15 K, w1 = 0.3	7.14e-10	1007.2	3.015
308.15 K, w1 = 0.4	6.6e-10	1013	5.915
308.15 K, w1 = 1	–	937.9	–
313.15 K, w1 = 0	9.5e-10	–	–
313.15 K, w1 = 0.1	8.95e-10	994.8	0.97
313.15 K, w1 = 0.2	8.52e-10	998.7	1.54
313.15 K, w1 = 0.3	8.13e-10	1004.5	2.582
313.15 K, w1 = 0.4	7.41e-10	1009.9	4.859
313.15 K, w1 = 1	–	933.8	–
318.15 K, w1 = 0	1.03e-09	–	–
318.15 K, w1 = 0.1	1.01e-09	992.8	0.88
318.15 K, w1 = 0.2	9.38e-10	996.3	1.366
318.15 K, w1 = 0.3	8.82e-10	1001.8	2.234
318.15 K, w1 = 0.4	8.55e-10	1006.7	4.049
318.15 K, w1 = 1	–	929.6	–
323.15 K, w1 = 0	1.19e-09	–	–
323.15 K, w1 = 0.1	1.12e-09	990.6	0.799
323.15 K, w1 = 0.2	1.06e-09	993.9	1.221
323.15 K, w1 = 0.3	1.01e-09	998.9	1.95
323.15 K, w1 = 0.4	9.61e-10	1003.4	3.302
323.15 K, w1 = 1	–	925.5	–

OCCO [1,2-ethanediol] + O
[3]
Details	binary diffusion coefficient [m2/s]
303.15 K	8.21e-10
308.15 K	9.03e-10
313.15 K	9.98e-10
318.15 K	1.09e-09
323.15 K	1.2e-09

NCCNCCN [di(2-aminoethyl)amine]
[2]
Details	mass density [kg/m3]
303.15 K	942.1
308.15 K	937.9
313.15 K	933.8
318.15 K	929.6
323.15 K	925.5

CN(C)CCN(C)C [N,N,N',N'-tetramethyl-1,2-diaminoethane]
[2]
Details	mass density [kg/m3]
303.15 K	767.3
308.15 K	762.9
313.15 K	759.1
318.15 K	754.7
323.15 K	750.3

O [water]
[2]
Details	viscosity [mPa·s]
303.15 K	0.789
308.15 K	0.714
313.15 K	0.651
318.15 K	0.598
323.15 K	0.541

CN(C)CCCN(C)C [N,N,N',N'-tetramethyl-1,3-propanediamine] + O
[1]
Details	binary diffusion coefficient [m2/s]	mass density [kg/m3]	viscosity [mPa·s]
303.15 K, w1 = 0	7.01e-10	–	–
303.15 K, w1 = 0.1	4.86e-10	983.3	1.345
303.15 K, w1 = 0.2	3.74e-10	972.5	2.335
303.15 K, w1 = 0.3	3.05e-10	960.1	3.923
303.15 K, w1 = 0.4	2.56e-10	944.6	6.081
303.15 K, w1 = 1	–	774.8	–
308.15 K, w1 = 0	7.99e-10	–	–
308.15 K, w1 = 0.1	5.53e-10	981.4	1.183
308.15 K, w1 = 0.2	4.41e-10	969.8	1.985
308.15 K, w1 = 0.3	3.57e-10	956.7	3.192
308.15 K, w1 = 0.4	2.89e-10	940.6	4.853
308.15 K, w1 = 1	–	770.9	–
313.15 K, w1 = 0	9.04e-10	–	–
313.15 K, w1 = 0.1	6.16e-10	979.3	1.051
313.15 K, w1 = 0.2	4.83e-10	967	1.709
313.15 K, w1 = 0.3	4.09e-10	953.1	2.669
313.15 K, w1 = 0.4	3.45e-10	936.6	3.838
313.15 K, w1 = 1	–	767.4	–
318.15 K, w1 = 0	1.01e-09	–	–
318.15 K, w1 = 0.1	6.82e-10	977	0.941
318.15 K, w1 = 0.2	5.41e-10	964	1.488
318.15 K, w1 = 0.3	4.58e-10	949.5	2.264
318.15 K, w1 = 0.4	3.82e-10	932.5	3.182
318.15 K, w1 = 1	–	765	–
323.15 K, w1 = 0	1.08e-09	–	–
323.15 K, w1 = 0.1	7.48e-10	974.6	0.846
323.15 K, w1 = 0.2	6.07e-10	961	1.311
323.15 K, w1 = 0.3	5.14e-10	945.8	1.945
323.15 K, w1 = 0.4	4.32e-10	928.4	2.681
323.15 K, w1 = 1	–	761.4	–
